Measured values taken from PubChem BioAssay AID1963829 (Molecular Pharmacology Branch, DTP, NCI, 2024).
pIC50: −log10 of the molar value.

Test system: 935938-334-R-J1-PDC complex spheroid viability
Assay: Anticancer human tumor 935938-334-R-J1-PDC patient-derived small intestine adenocarcinoma cell line growth inhibition [POLQ]
Conditions: for pIC50: curve of first compound; for viability, T/C: stronger effect = lower value
Method in brief: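 Patient-derived tumour cells were co-cultured with HUVEC and mesenchymal stem cells as multicellular spheroids at 37 °C. They were treated with POLQ inhibitors (novobiocin, ART-558, RP6685) alone or combined with other agents. Top concentrations were at or near clinical Cmax (otherwise 10 microM; SN-38 at 1 microM), decreasing in half-log steps.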

[1] = second compound 0.0316 µM, first compound 0.0316 µM
[2] = second compound 0.0316 µM, first compound 0.1 µM
[3] = second compound 0.0316 µM, first compound 0.316 µM
[4] = second compound 0.0316 µM, first compound 1 µM
[5] = second compound 0.0316 µM, first compound 3.16 µM
[6] = second compound 0.0316 µM, first compound 10 µM
[7] = second compound 0.1 µM, first compound 0.0316 µM
[8] = second compound 0.1 µM, first compound 0.1 µM
[9] = second compound 0.1 µM, first compound 0.316 µM
[10] = second compound 0.1 µM, first compound 1 µM
[11] = second compound 0.1 µM, first compound 3.16 µM
[12] = second compound 0.1 µM, first compound 10 µM
[13] = second compound 0.316 µM, first compound 0.0316 µM
[14] = second compound 0.316 µM, first compound 0.1 µM
[15] = second compound 0.316 µM, first compound 0.316 µM
[16] = second compound 0.316 µM, first compound 1 µM
[17] = second compound 0.316 µM, first compound 3.16 µM
[18] = second compound 0.316 µM, first compound 10 µM
[19] = second compound 1 µM, first compound 0.0316 µM
[20] = second compound 1 µM, first compound 0.1 µM
[21] = second compound 1 µM, first compound 0.316 µM
[22] = second compound 1 µM, first compound 1 µM
[23] = second compound 1 µM, first compound 3.16 µM
[24] = second compound 1 µM, first compound 10 µM
[25] = second compound 3.16 µM, first compound 0.0316 µM
[26] = second compound 3.16 µM, first compound 0.1 µM
[27] = second compound 3.16 µM, first compound 0.316 µM
[28] = second compound 3.16 µM, first compound 1 µM
[29] = second compound 3.16 µM, first compound 3.16 µM
[30] = second compound 3.16 µM, first compound 10 µM
[31] = second compound 10 µM, first compound 0.0316 µM
[32] = second compound 10 µM, first compound 0.1 µM
[33] = second compound 10 µM, first compound 0.316 µM
[34] = second compound 10 µM, first compound 1 µM
[35] = second compound 10 µM, first compound 3.16 µM
[36] = second compound 10 µM, first compound 10 µM
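Note: spheroids exposed to drugs for seven days before viability read.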
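Throughout, for viability, T/C: 100% = DMSO vehicle control wells.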

C=CC(=O)N1CCN(c2nc(=O)n(-c3c(C)ccnc3C(C)C)c3nc(-c4c(O)cccc4F)c(F)cc23)C(C)C1 (stereo unspecified) + Cc1cccc(N(C)C(=O)C2C(O)CCN2c2nc(C)cc(C(F)(F)F)c2C#N)c1
pIC50 (second compound 0.0316 µM): < 5.00 | pIC50 (second compound 0.1 µM): < 5.00 | pIC50 (second compound 0.316 µM): < 5.00 | pIC50 (second compound 1 µM): < 5.00 | pIC50 (second compound 3.16 µM): < 5.00 | pIC50 (second compound 10 µM): < 5.00 | viability, T/C [1]: 94.3% | viability, T/C [2]: 98.4% | viability, T/C [3]: 77% | viability, T/C [4]: 101% | viability, T/C [5]: 88.1% | viability, T/C [6]: 109% | viability, T/C [7]: 116% | viability, T/C [8]: 97.8% | viability, T/C [9]: 91.3% | viability, T/C [10]: 113% | viability, T/C [11]: 90.4% | viability, T/C [12]: 70.1% | viability, T/C [13]: 76.7% | viability, T/C [14]: 80.9% | viability, T/C [15]: 105% | viability, T/C [16]: 100% | viability, T/C [17]: 81.2% | viability, T/C [18]: 106% | viability, T/C [19]: 85.8% | viability, T/C [20]: 111% | viability, T/C [21]: 82.7% | viability, T/C [22]: 108% | viability, T/C [23]: 92.2% | viability, T/C [24]: 99.7% | viability, T/C [25]: 96% | viability, T/C [26]: 95% | viability, T/C [27]: 74.6% | viability, T/C [28]: 96.3% | viability, T/C [29]: 102% | viability, T/C [30]: 79.1% | viability, T/C [31]: 77.8% | viability, T/C [32]: 80.6% | viability, T/C [33]: 64.8% | viability, T/C [34]: 94.9% | viability, T/C [35]: 118% | viability, T/C [36]: 107%

CC1COCCN1c1cc(-c2ccnn2C)c2ccnc(-c3ccn[nH]3)c2n1 (stereo unspecified) + Cc1cccc(N(C)C(=O)C2C(O)CCN2c2nc(C)cc(C(F)(F)F)c2C#N)c1
pIC50 (second compound 0.0316 µM): 6.97 | pIC50 (second compound 0.1 µM): 7.01 | pIC50 (second compound 0.316 µM): 6.97 | pIC50 (second compound 1 µM): 6.90 | pIC50 (second compound 3.16 µM): 6.94 | pIC50 (second compound 10 µM): 6.95 | viability, T/C [1]: 93.5% | viability, T/C [2]: 52.1% | viability, T/C [3]: 20.2% | viability, T/C [4]: 17.5% | viability, T/C [5]: 20.1% | viability, T/C [6]: 22% | viability, T/C [7]: 105% | viability, T/C [8]: 48.6% | viability, T/C [9]: 29.4% | viability, T/C [10]: 20.7% | viability, T/C [11]: 18.7% | viability, T/C [12]: 23.3% | viability, T/C [13]: 79.2% | viability, T/C [14]: 51.7% | viability, T/C [15]: 23.6% | viability, T/C [16]: 17.7% | viability, T/C [17]: 18.9% | viability, T/C [18]: 20.8% | viability, T/C [19]: 90.2% | viability, T/C [20]: 54.9% | viability, T/C [21]: 29.8% | viability, T/C [22]: 16.4% | viability, T/C [23]: 21.9% | viability, T/C [24]: 22% | viability, T/C [25]: 83.3% | viability, T/C [26]: 53.4% | viability, T/C [27]: 23.5% | viability, T/C [28]: 17.2% | viability, T/C [29]: 18.5% | viability, T/C [30]: 23% | viability, T/C [31]: 86% | viability, T/C [32]: 51.9% | viability, T/C [33]: 32.1% | viability, T/C [34]: 18.4% | viability, T/C [35]: 22.6% | viability, T/C [36]: 22.8%

O=C(Nc1ccc(O)c(NS(=O)(=O)c2ccc(F)cc2)c1)c1ccc(-c2ccccc2)cc1 + Nc1ccc(C#CCN(C(=O)Cc2ncc(C(F)(F)F)cc2C(F)(F)F)c2ccc(F)cc2)nn1
pIC50 (second compound 0.0316 µM): < 5.00 | pIC50 (second compound 0.1 µM): < 5.00 | pIC50 (second compound 0.316 µM): < 5.00 | pIC50 (second compound 1 µM): < 5.00 | pIC50 (second compound 3.16 µM): < 5.00 | pIC50 (second compound 10 µM): 5.11 | viability, T/C [1]: 107% | viability, T/C [2]: 120% | viability, T/C [3]: 108% | viability, T/C [4]: 89.2% | viability, T/C [5]: 81.7% | viability, T/C [6]: 64.6% | viability, T/C [7]: 91.9% | viability, T/C [8]: 83.1% | viability, T/C [9]: 91.3% | viability, T/C [10]: 106% | viability, T/C [11]: 104% | viability, T/C [12]: 79% | viability, T/C [13]: 112% | viability, T/C [14]: 92.9% | viability, T/C [15]: 96.8% | viability, T/C [16]: 110% | viability, T/C [17]: 112% | viability, T/C [18]: 67.2% | viability, T/C [19]: 83.1% | viability, T/C [20]: 105% | viability, T/C [21]: 114% | viability, T/C [22]: 126% | viability, T/C [23]: 112% | viability, T/C [24]: 59.4% | viability, T/C [25]: 91.8% | viability, T/C [26]: 98% | viability, T/C [27]: 111% | viability, T/C [28]: 101% | viability, T/C [29]: 116% | viability, T/C [30]: 70.9% | viability, T/C [31]: 127% | viability, T/C [32]: 85.6% | viability, T/C [33]: 101% | viability, T/C [34]: 94.5% | viability, T/C [35]: 99.5% | viability, T/C [36]: 35.9%
